Experiments:
Type in all cases: biochemical
Settings in all cases: ATP, MgCl2, 200 mM Tris-HCl, optimal pH about 7.0, optimal temperature 50 °C
Sm4CL2 [1] = molecular target: T1, Sm4CL2 (Selaginella moellendorffii, UniProt D8S6A2); test: UV absorption at […] nm, CoA ester formation
T1 construct: gene 4CL2-1; 75-79 kDa with tags (tags kept)

Sm4CL2 [2] = molecular target: T1, Sm4CL2; test: UV absorption at […] nm, CoA ester formation; remark: listed apart in the source
Sm4CL2 [3] = molecular target: T1, Sm4CL2; test: HPLC quantification of CoA ester after […] min
Sm4CL2 [4] = molecular target: T1, Sm4CL2; test: UV absorption at […] nm, CoA ester formation; remark: listed apart in the source

T1 sequence (D8S6A2 entry or part of it): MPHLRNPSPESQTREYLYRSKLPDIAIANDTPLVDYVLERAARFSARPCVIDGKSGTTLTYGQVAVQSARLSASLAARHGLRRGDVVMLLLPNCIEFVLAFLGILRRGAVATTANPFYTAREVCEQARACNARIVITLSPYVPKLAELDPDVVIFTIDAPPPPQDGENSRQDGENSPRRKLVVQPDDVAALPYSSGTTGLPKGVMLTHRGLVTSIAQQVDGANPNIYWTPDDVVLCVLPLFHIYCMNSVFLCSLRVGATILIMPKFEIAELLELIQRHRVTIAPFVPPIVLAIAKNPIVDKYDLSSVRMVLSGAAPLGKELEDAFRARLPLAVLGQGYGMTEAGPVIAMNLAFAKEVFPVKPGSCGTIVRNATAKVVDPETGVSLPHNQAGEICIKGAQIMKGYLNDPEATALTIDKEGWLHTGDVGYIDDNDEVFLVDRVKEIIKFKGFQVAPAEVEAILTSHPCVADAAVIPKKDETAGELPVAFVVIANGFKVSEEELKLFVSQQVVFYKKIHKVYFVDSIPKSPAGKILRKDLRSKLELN

## O=C(O)/C=C/c1ccc(O)c(O)c1 [caffeic acid]
Sm4CL2 [1]
  Km: 19 ± 2.61 µM

## O=C(O)/C=C/c1ccccc1 [cinnamic acid]
Sm4CL2 [2]
  Km: 127 ± 11.6 µM

## O=C(O)CCc1ccc(O)cc1 [dihydro-p-coumaric acid]
Sm4CL2 [3]
  Km: 220 ± 36.9 µM

## COc1cc(/C=C/C(=O)O)ccc1O [ferulic acid]
Sm4CL2 [1]
  Km: 96 ± 13.4 µM

## O=C(O)/C=C/c1ccc(O)cc1 [p-coumaric acid]
Sm4CL2 [4]
  Km: 19.7 ± 2.92 µM

From publication PMC6017068, “Cloning and Functional Characterization of Two 4-Coumarate: CoA Ligase Genes from Selaginella moellendorffii” (Molecules : A Journal of Synthetic Chemistry and Natural …, 2018)
